Test results taken from ChEMBL document CHEMBL1157881, “Optimization of arylindenopyrimidines as potent adenosine A(2A)/A(1) antagonists” (Bioorg Med Chem Lett, 2010).
Calls of active or inactive are those of the source. No cut-off for these calls is given here.

How the values were obtained:
Adenosine receptor A2a = Adenosine receptor A2a (Homo sapiens, UniProt P29274); test: Antagonistic activity at adenosine A2A receptor; format: functional
Adenosine receptor A1 = molecular target: T1, Adenosine receptor A1 (Homo sapiens, UniProt P30542); test: Antagonistic activity at adenosine A1 receptor; format: functional
T1 sequence (P30542 whole entry): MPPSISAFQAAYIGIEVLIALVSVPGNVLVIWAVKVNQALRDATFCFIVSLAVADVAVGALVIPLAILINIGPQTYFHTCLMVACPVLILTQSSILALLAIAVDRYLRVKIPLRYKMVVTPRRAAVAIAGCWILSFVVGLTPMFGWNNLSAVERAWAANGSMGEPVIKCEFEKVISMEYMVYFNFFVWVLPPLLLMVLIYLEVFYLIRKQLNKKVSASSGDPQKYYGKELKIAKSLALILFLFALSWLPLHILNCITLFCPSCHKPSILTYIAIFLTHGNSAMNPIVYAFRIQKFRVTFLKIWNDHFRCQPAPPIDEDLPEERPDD

Mus musculus [1] = test: Antagonist activity against haloperidol-induced catalepsy in mouse at 3 mg/kg, po; format: functional, organism-based; parameters: dose 3 mg/kg
Mus musculus [2] = test: Antagonist activity against haloperidol-induced catalepsy in po dosed mouse; format: functional
Mus musculus [3] = test: Antagonist activity against haloperidol-induced catalepsy in mouse at 10 mg/kg, po; format: functional, organism-based; parameters: dose 10 mg/kg
[4] = Cmax in rat brain; format: ADME, organism-based

Adenosine receptor A2a, sequence (P29274 whole entry): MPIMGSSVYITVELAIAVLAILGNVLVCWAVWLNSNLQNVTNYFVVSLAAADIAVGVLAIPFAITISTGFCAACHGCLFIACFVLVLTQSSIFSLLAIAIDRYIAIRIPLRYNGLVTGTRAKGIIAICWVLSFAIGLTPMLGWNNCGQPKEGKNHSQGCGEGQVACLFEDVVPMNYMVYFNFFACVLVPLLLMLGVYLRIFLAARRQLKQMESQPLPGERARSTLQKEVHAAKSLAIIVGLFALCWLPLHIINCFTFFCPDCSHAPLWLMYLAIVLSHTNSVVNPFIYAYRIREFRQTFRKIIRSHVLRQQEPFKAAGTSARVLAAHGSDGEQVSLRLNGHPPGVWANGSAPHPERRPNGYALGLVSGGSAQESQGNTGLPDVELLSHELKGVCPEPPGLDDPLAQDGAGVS

SMILES	Ki (Adenosine receptor A2a) [nM]	Ki (Adenosine receptor A1) [nM]	Activity (Mus musculus [1])	ED50 (Mus musculus [2]) [mg/kg]	Activity (Mus musculus [3])	Cmax [4] [µM]
CN(C)CCOc1ccc2c(c1)-c1nc(N)nc(-c3ccc(F)cc3)c1C2=O	37.3	37.4				
Nc1nc(-c2ccccc2)c2c(n1)-c1cc(NCCN3CCS(=O)(=O)CC3)ccc1C2=O	3.1	46.7	inactive			
CCN(CC)CCN(C)C(=O)c1ccc2c(c1)-c1nc(N)nc(-c3ccccc3)c1C2=O	7.8	94.7		< 1		
CC(C)N(CCOc1ccc2c(c1)-c1nc(N)nc(-c3ccccc3)c1C2=O)C(C)C	13.7	187		< 1		
CN(C)CCOc1ccc2c(c1)-c1nc(N)nc(-c3ccccc3)c1C2=O	17.3	33.3		< 3		
Nc1nc(-c2ccccc2)c2c(n1)-c1cc(C(=O)N3CCNCC3)ccc1C2=O	32.5	12.3				
Nc1nc(-c2ccccc2)c2c(n1)-c1cc(OCCN3CCCC3)ccc1C2=O	19.3	159		< 1		
CN1CCCN(c2ccc3c(c2)-c2nc(N)nc(-c4ccccc4)c2C3=O)CC1	10	137				
CN1CCN(c2ccc3c(c2)-c2nc(N)nc(-c4ccccc4)c2C3=O)CC1	2.7	35.6		< 1		
Nc1nc(-c2ccc(F)cc2)c2c(n1)-c1cc(OCCN3C4CCC3CC4)ccc1C2=O	35.1	337			inactive	
Nc1nc(-c2ccccc2)c2c(n1)-c1cc(N3CCN(CC4CC4)CC3)ccc1C2=O	23.2	253				
CN1CCC(N(C)C(=O)c2ccc3c(c2)-c2nc(N)nc(-c4ccccc4)c2C3=O)CC1	18.6	258		< 1		
Nc1nc(-c2ccccc2)c2c(n1)-c1cc(N3CCOCC3)ccc1C2=O	2.9	32.4				
CCN(CC)CCOc1ccc2c(c1)-c1nc(N)nc(-c3ccc(F)cc3)c1C2=O	50.6	414				
CCN1CCN(C(=O)c2ccc3c(c2)-c2nc(N)nc(-c4ccc(F)cc4)c2C3=O)CC1	32.1	191				
CN1CCN(C(=O)c2ccc3c(c2)-c2nc(N)nc(-c4ccc(F)cc4)c2C3=O)CC1	11.1	101		< 1		
CC(C)N1CCN(C(=O)c2ccc3c(c2)-c2nc(N)nc(-c4ccccc4)c2C3=O)CC1	20.7	84.1				
Nc1nc(-c2ccccc2)c2c(n1)-c1cc(CN3CCCC3)ccc1C2=O						3.6
CCN1CCN(C(=O)c2ccc3c(c2)-c2nc(N)nc(-c4ccccc4)c2C3=O)CC1	14.9	67.4		< 1		

SMILES	Ki (Adenosine receptor A2a) [nM]	Ki (Adenosine receptor A1) [nM]	Activity (Mus musculus [1])	ED50 (Mus musculus [2]) [mg/kg]	Activity (Mus musculus [3])	Cmax [4] [µM]
Nc1nc(-c2ccccc2)c2c(n1)-c1cc(OCCN3CCCCC3)ccc1C2=O	35.3	194				
CC(C)N1CCC(NC(=O)c2ccc3c(c2)-c2nc(N)nc(-c4ccccc4)c2C3=O)CC1	16.8	119		0.4		
Nc1nc(-c2ccccc2)c2c(n1)-c1cc(NCCN3CCOCC3)ccc1C2=O	4.4	32.7		< 1		
Nc1nc(-c2ccccc2)c2c(n1)-c1cc(OCCN3CCOCC3)ccc1C2=O		48.2		< 1		4.1
CN(C)CCN(C)C(=O)c1ccc2c(c1)-c1nc(N)nc(-c3ccccc3)c1C2=O	12.4	208		< 1		
Nc1nc(-c2ccccc2)c2c(n1)-c1cc(C(=O)NCCN3CCOCC3)ccc1C2=O	28.4	215				
CCN1CCC(N(C)c2ccc3c(c2)-c2nc(N)nc(-c4ccccc4)c2C3=O)CC1	4.9	16.4				
CN(C)CCN(C)c1ccc2c(c1)-c1nc(N)nc(-c3ccccc3)c1C2=O	4.7	57.3				
CCN1CCN(c2ccc3c(c2)-c2nc(N)nc(-c4ccccc4)c2C3=O)CC1	11.4	256		< 1		
CCN(CC)CCNC(=O)c1ccc2c(c1)-c1nc(N)nc(-c3ccccc3)c1C2=O	13.5	45.2				
CCN(CC)CCOc1ccc2c(c1)-c1nc(N)nc(-c3ccccc3)c1C2=O	7.9	103		< 1		
CN1CCN(C(=O)c2ccc3c(c2)-c2nc(N)nc(-c4ccccc4)c2C3=O)CC1				0.4		0.6
CC(C)N(CCOc1ccc2c(c1)-c1nc(N)nc(-c3ccc(F)cc3)c1C2=O)C(C)C	76.6	468				
Nc1nc(-c2ccccc2)c2c(n1)-c1cc(NCCc3ccccn3)ccc1C2=O	0.9	15.4				
Nc1nc(-c2ccc(F)cc2)c2c(n1)-c1cc(OCCN3CCOCC3)ccc1C2=O	18.1	203		< 1		
CCN1CCC(Nc2ccc3c(c2)-c2nc(N)nc(-c4ccccc4)c2C3=O)CC1	12.5	142	inactive			
Nc1nc(-c2ccc(F)cc2)c2c(n1)-c1cc(OCCN3CCCC3)ccc1C2=O	117	600		0.8		
Nc1nc(-c2ccccc2)c2c(n1)-c1cc(NCCc3ccncc3)ccc1C2=O	0.9	12.7				
